# Test system: chronic colitis induced by DSS treatment
# Assay: Apyrase administration in DSS-induced chronic colitis (weight)
# Assay type: in vivo, mice
# Conditions: apyrase 0.4 units/g weight at week five
# Description: Adult mice (55-75 day old) sex-matched hemizygous CD39+/−, CD39−/−, and CD39+/+ littermates were given 3-5% (w/v) DSS in drinking water for seven days to induce a pathological state reminiscent of acute ulcerative colitis. Mice were fasted on day 7, and sacrificed the next day. Tissue was collected for Haematoxylin and Eosin staining, immunohistochemistry staining (for CD39, CD39L1, P-selectin, Fibrin, and P2Y1, for example), Western blot analysis, and NTPDase activity. To induce chronic ulcerative colitis, mice were treated with 3% DSS for seven days followed by a one week rest period. DSS treatment was resumed for seven days followed by another rest period of seven days. Treatment was resumed in the fifth week for seven days. At least six age- and sex-matched hemizygous CD39+/−, CD39−/−, and CD39+/+ mice were studied at the end of seven days of DSS treatment (acute colitis) or 5 week DSS treatment (chronic colitis). Mice were housed in standard cages and were allowed to drink and feed ad libitum. Animals were weighed daily. To test the hypothesis that the administration of an NTPDase can delay the damage caused by colitis, CD39+/+ and CD39+/− mice, following the induction of chronic colitis by DSS treatment, were administered with apyrase, an NTPDase (see FIGS. 4A and 4B). Apyrase was administered at 0.4 units/g weight at week five following the initial treatment with DSS.
substance,measurement,setting,value
apyrase,weight following apyrase treatment,CD39+/+ mice,significant gain in weight
same,weight following apyrase treatment,"CD39−/+ (hemizygous) mice, compared with effect in CD39+/+ mice",further enhanced
